{"source": "patent US10105357B2", "about": "“Indication of antibiotic drugs for preparation of cancer inhibition pharmaceutical composition” (LAUNX BIOMEDICAL CO., LTD., priority 2014, dated 2018)", "key": {"U-2OS": {"tested_on": "U-2OS", "test": "Cell viability analysis, osteosarcoma U-2OS", "assay_type": "cell-based, human", "conditions": "Homo sapiens, U2OS, 72 h, read-out: The results of antibiotic drug inhibiting cancer cell lines (cell viability analysis), U2OS"}, "[1]": {"tested_on": "786-O (Renal adenocarcinoma)", "test": "Cell viability analysis, renal cancer 786-O", "assay_type": "cell-based, human", "conditions": "Homo sapiens, 786-0, 72 h, read-out: The results of antibiotic drug inhibiting cancer cell lines (cell viability analysis), 786-O"}, "[2]": {"tested_on": "HL-60 (Acute Promyelocytic Leukemia)", "test": "Cell viability analysis, leukemia HL-60", "assay_type": "cell-based, human", "conditions": "Homo sapiens, HL-60, 72 h, read-out: cell viability (survival rate), HL-60, drug 10 μM, 72 hours, WST-1, OD450 nm"}, "NIH: OVCAR-3": {"tested_on": "NIH: OVCAR-3", "test": "Cell viability analysis, ovarian cancer NIH: OVCAR-3", "assay_type": "cell-based, human", "conditions": "Homo sapiens, OVCAR-3, 72 h, read-out: The results of antibiotic drug inhibiting cancer cell lines (cell viability analysis), NIH-OVCAR-3"}, "[3]": {"tested_on": "HI650 (Lung Adenocarcinoma)", "test": "Cell viability analysis, lung cancer HI650", "assay_type": "cell-based, human", "conditions": "Homo sapiens, NCI-H1650, 72 h"}, "T24": {"tested_on": "T24", "test": "Cell viability analysis, bladder cancer T24", "assay_type": "cell-based, human", "conditions": "Homo sapiens, T-24, 72 h, read-out: The results of antibiotic drug inhibiting cancer cell lines (cell viability analysis), T24"}, "[4]": {"tested_on": "HCT116 (p53+) (Colorectal Carcinoma)"}, "[5]": {"tested_on": "C-33A (Cervical carcinoma)", "test": "Cell viability analysis, cervical cancer C-33A", "assay_type": "cell-based, human", "conditions": "Homo sapiens, C-33-A, 72 h, read-out: The results of antibiotic drug inhibiting cancer cell lines (cell viability analysis), C-33A"}, "[6]": {"tested_on": "A549 (Lung Adenocarcinoma)", "test": "Cell viability analysis, lung cancer A549", "assay_type": "cell-based, human", "conditions": "Homo sapiens, A549, 72 h"}, "[7]": {"tested_on": "HeLa (Cervix Adenocarcinoma)", "test": "Cell viability analysis, cervical cancer HeLa", "assay_type": "cell-based, human", "conditions": "Homo sapiens, HeLa, 72 h"}, "[8]": {"tested_on": "HepG2 (Hepatocellular Carcinoma)", "test": "Cell viability analysis, hepatic cancer HepG2", "assay_type": "cell-based, human", "conditions": "Homo sapiens, HepG2, 72 h"}, "[9]": {"tested_on": "BCC (basal cell carcinoma)", "test": "Cell viability analysis, skin cancer BCC", "assay_type": "cell-based, human", "conditions": "Homo sapiens, 72 h, read-out: The results of antibiotic drug inhibiting cancer cell lines (cell viability analysis), BCC"}, "[10]": {"tested_on": "SAS (Tongue squamous cell carcinoma)", "test": "Cell viability analysis, tongue cancer SAS", "assay_type": "cell-based, human", "conditions": "Homo sapiens, 72 h, read-out: The results of antibiotic drug inhibiting cancer cell lines (cell viability analysis), SAS"}, "[11]": {"tested_on": "LoVo (Colorectal Adenocarcinoma)", "test": "Cell viability analysis, colon cancer LoVo", "assay_type": "cell-based, human", "conditions": "Homo sapiens, LoVo, 72 h"}, "[12]": {"tested_on": "MKN-45 (Gastric Adenocarcinoma)", "test": "Cell viability analysis, gastric cancer MKN-45", "assay_type": "cell-based, human", "conditions": "Homo sapiens, MKN-45, 72 h"}, "AsPC-1": {"tested_on": "AsPC-1", "test": "Cell viability analysis, pancreatic cancer AsPC-1", "assay_type": "cell-based, human", "conditions": "Homo sapiens, ASPC1, 72 h, read-out: The results of antibiotic drug inhibiting cancer cell lines (cell viability analysis), AsPC-1"}, "cancer cell lines": {"tested_on": "cancer cell lines", "test": "Cell viability analysis (WST-1) on cancer cell lines", "assay_type": "cell-based, human", "conditions": "drug 10 μM, 72 hours, WST-1; Table 3"}, "[13]": {"tested_on": "MCF7 (Mammary Gland, Adenocarcinoma)", "test": "Cell viability analysis, breast cancer MCF7", "assay_type": "cell-based, human", "conditions": "Homo sapiens, MCF7, 72 h"}, "[14]": {"tested_on": "AGS (Gastric Adenocarcinoma)", "test": "Cell viability analysis, gastric cancer AGS", "assay_type": "cell-based, human", "conditions": "Homo sapiens, 72 h"}, "[15]": {"tested_on": "Hep3B (hepatocellular carcinoma)", "test": "Cell viability analysis, hepatic cancer Hep3B", "assay_type": "cell-based, human", "conditions": "Homo sapiens, Hep3B, 72 h, read-out: The results of antibiotic drug inhibiting cancer cell lines (cell viability analysis), Hep3B"}, "TOV-21G": {"tested_on": "TOV-21G", "test": "Cell viability analysis, ovarian cancer TOV-21G", "assay_type": "cell-based, human", "conditions": "Homo sapiens, TOV21G, 72 h, read-out: The results of antibiotic drug inhibiting cancer cell lines (cell viability analysis), TOV-21G"}, "[16]": {"tested_on": "A375 (Amelanotic Melanoma)", "test": "Cell viability analysis, skin cancer A375", "assay_type": "cell-based, human", "conditions": "Homo sapiens, A-375, 72 h"}, "BxPC-3": {"tested_on": "BxPC-3", "test": "Cell viability analysis, pancreatic cancer BxPC-3", "assay_type": "cell-based, human", "conditions": "Homo sapiens, BXPC-3, 72 h, read-out: The results of antibiotic drug inhibiting cancer cell lines (cell viability analysis), BxPC-3"}, "[17]": {"tested_on": "PC3 (p53−) (Prostate Adenocarcinoma)", "test": "Cell viability analysis, prostate cancer PC3", "assay_type": "cell-based, human", "conditions": "Homo sapiens, 72 h"}, "[18]": {"tested_on": "MDA-MB-231 (Mammary Gland, Adenocarcinoma)", "test": "Cell viability analysis, breast cancer MDA-MB-231", "assay_type": "cell-based, human", "conditions": "Homo sapiens, MDA-MB-231, 72 h, read-out: The results of antibiotic drug inhibiting cancer cell lines (cell viability analysis), MDA-MB231"}}, "note": "Where two headings read alike, the source gives them in different places.", "data": [{"smiles": "COc1cc(NC(C)CCCN)c2ncccc2c1", "note": "(centres unmarked) [Primaquine Diphosphate]", "values": [{"measurement": "viability at 10 µM", "setting": "U-2OS", "result": 59.6, "unit": "%"}, {"measurement": "viability at 10 µM", "setting": "[1]", "result": 81.5, "unit": "%"}, {"measurement": "viability at 10 µM", "setting": "[2]", "result": 34.1, "unit": "%"}, {"measurement": "viability at 10 µM", "setting": "NIH: OVCAR-3", "result": 60.2, "unit": "%"}, {"measurement": "viability at 10 µM", "setting": "[3]; read-out: The results of antibiotic drug inhibiting cancer cell lines (cell viability analysis), H1650, H1650, repeated experiment", "result": 66.8, "unit": "%"}, {"measurement": "viability at 10 µM", "setting": "[3]; read-out: cell viability (survival rate), H1650, drug 10 μM, 72 hours, WST-1, OD450 nm", "result": 56.4, "unit": "%"}, {"measurement": "viability at 10 µM", "setting": "T24", "result": 72.6, "unit": "%"}, {"measurement": "viability", "setting": "[4]", "result": 60.9, "unit": "%"}, {"measurement": "viability at 10 µM", "setting": "[5]", "result": 96.8, "unit": "%"}, {"measurement": "viability at 10 µM", "setting": "[6]; read-out: The results of antibiotic drug inhibiting cancer cell lines (cell viability analysis), A549, A549, repeated experiment", "result": 47.4, "unit": "%"}, {"measurement": "viability at 10 µM", "setting": "[6]; read-out: cell viability (survival rate), A549, drug 10 μM, 72 hours, WST-1, OD450 nm", "result": 31.4, "unit": "%"}, {"measurement": "viability at 10 µM", "setting": "[7]; read-out: The results of antibiotic drug inhibiting cancer cell lines (cell viability analysis), HeLa, repeated experiment", "result": 61.2, "unit": "%"}, {"measurement": "viability at 10 µM", "setting": "[7]; read-out: cell viability (survival rate), HeLa, drug 10 μM, 72 hours, WST-1, OD450 nm", "result": 55, "unit": "%"}, {"measurement": "viability at 10 µM", "setting": "[8]; read-out: The results of antibiotic drug inhibiting cancer cell lines (cell viability analysis), HepG2, HepG2, repeated experiment", "result": 81, "unit": "%"}, {"measurement": "viability at 10 µM", "setting": "[8]; read-out: cell viability (survival rate), HepG2, drug 10 μM, 72 hours, WST-1, OD450 nm", "result": 81.4, "unit": "%"}, {"measurement": "viability at 10 µM", "setting": "[9]", "result": 35.9, "unit": "%"}, {"measurement": "viability at 10 µM", "setting": "[10]", "result": 59.9, "unit": "%"}, {"measurement": "viability at 10 µM", "setting": "[11]; read-out: The results of antibiotic drug inhibiting cancer cell lines (cell viability analysis), LoVo, repeated experiment", "result": 81.2, "unit": "%"}, {"measurement": "viability at 10 µM", "setting": "[11]; read-out: cell viability (survival rate), LoVo, drug 10 μM, 72 hours, WST-1, OD450 nm", "result": 72.6, "unit": "%"}, {"measurement": "viability at 10 µM", "setting": "[12]; read-out: The results of antibiotic drug inhibiting cancer cell lines (cell viability analysis), MKN-45, MKN-45, repeated experiment", "result": 63.1, "unit": "%"}, {"measurement": "viability at 10 µM", "setting": "[12]; read-out: cell viability (survival rate), MKN-45, drug 10 μM, 72 hours, WST-1, OD450 nm", "result": 64.3, "unit": "%"}, {"measurement": "viability at 10 µM", "setting": "AsPC-1", "result": 66.5, "unit": "%"}, {"measurement": "inhibition effect on different cancer cell lines", "setting": "cancer cell lines", "result": "significant inhibition effect"}, {"measurement": "viability at 10 µM", "setting": "[13]; read-out: The results of antibiotic drug inhibiting cancer cell lines (cell viability analysis), MCF-7, MCF-7, repeated experiment", "result": 50.7, "unit": "%"}, {"measurement": "viability at 10 µM", "setting": "[13]; read-out: cell viability (survival rate), MCF7, drug 10 μM, 72 hours, WST-1, OD450 nm", "result": 36.7, "unit": "%"}, {"measurement": "viability at 10 µM", "setting": "[14]; read-out: The results of antibiotic drug inhibiting cancer cell lines (cell viability analysis), AGS, repeated experiment", "result": 37.1, "unit": "%"}, {"measurement": "viability at 10 µM", "setting": "[14]; read-out: cell viability (survival rate), AGS, drug 10 μM, 72 hours, WST-1, OD450 nm", "result": 43.9, "unit": "%"}, {"measurement": "viability at 10 µM", "setting": "[15]", "result": 115, "unit": "%"}, {"measurement": "viability at 10 µM", "setting": "TOV-21G", "result": 54.8, "unit": "%"}, {"measurement": "viability at 10 µM", "setting": "[16]; read-out: The results of antibiotic drug inhibiting cancer cell lines (cell viability analysis), A375, A375, repeated experiment", "result": 38.7, "unit": "%"}, {"measurement": "viability at 10 µM", "setting": "[16]; read-out: cell viability (survival rate), A375, drug 10 μM, 72 hours, WST-1, OD450 nm", "result": 44.6, "unit": "%"}, {"measurement": "viability at 10 µM", "setting": "BxPC-3", "result": 49.8, "unit": "%"}, {"measurement": "viability at 10 µM", "setting": "[17]; read-out: The results of antibiotic drug inhibiting cancer cell lines (cell viability analysis), PC-3, PC-3, repeated experiment", "result": 65.7, "unit": "%"}, {"measurement": "viability at 10 µM", "setting": "[17]; read-out: cell viability (survival rate), PC3, drug 10 μM, 72 hours, WST-1, OD450 nm", "result": 60.3, "unit": "%"}, {"measurement": "viability at 10 µM", "setting": "[18]", "result": 65.4, "unit": "%"}]}]}
